The values that follow come from ChEMBL document CHEMBL4342418, “1,2,3-Triazole-containing hybrids as potential anticancer agents: Current developments, action mechanisms and structure-activity relationships” (Eur J Med Chem, 2019).

Converted amounts (≈) assume the structure as drawn.

One experiment deals with SGC-7901. The experiment is described as follows: Antiproliferative activity against human SGC7901 cells assessed as reduction in cell viability after 72 hrs by MTT assay. Type of experiment: functional, cell-based. The conditions noted are these: SGC-7901, 72 h.
The subject of another experiment is BGC-823. Kind of experiment: Antiproliferative activity against human BGC823 cells assessed as reduction in cell viability after 72 hrs by MTT assay. Type of experiment: functional, cell-based. The conditions noted are these: BGC-823, 72 h. A general note: Tetrazolium assays rely on reduction of a dye to a coloured formazan, in cell work by metabolically active cells.

Another experiment has as its target Tubulin. Kind of experiment: Inhibition of tubulin polymerization (unknown origin). Format: protein-complex assay, Homo sapiens.
Experiment [1] relates to MGC-803. The experiment is described as follows: Antiproliferative activity against human MGC803 cells assessed as reduction in cell viability after 72 hrs by MTT assay. Format: functional, cell-based. The conditions noted are these: MGC-803, 72 h.
The subject of experiment [2] is MGC-803. The experiment is described as follows: Antitumour activity against human MGC803 cells xenografted in BALB/c nude mice assessed as inhibition of tumour growth at 60 mg/kg, ig administered for 21 days relative to control. Format: functional. The conditions noted are these: Mus musculus, MGC-803, po, 504 h; read-out: TGI.
Experiment [3] deals with A549. Kind of experiment: Antiproliferative activity against human A549 cells assessed as reduction in cell viability after 72 hrs by MTT assay. Format: functional, cell-based. The conditions noted are these: A549, 72 h.
In experiment [4] the test system is HepG2. The experiment is described as follows: Antiproliferative activity against human HepG2 cells assessed as reduction in cell viability after 72 hrs by MTT assay. Type of experiment: functional, cell-based. The conditions noted are these: HepG2, 72 h.
Experiment [5] concerns MCF7. Kind of experiment: Antiproliferative activity against human MCF7 cells assessed as reduction in cell viability after 72 hrs by MTT assay. The conditions noted are these: MCF7, 72 h. Format: functional, cell-based.
In experiment [6] the test system is HepG2. The experiment is described as follows: Potency index, ratio of foretinib IC50 to test compound IC50 for antiproliferative activity against human HepG2 cells. Format: functional.
Experiment [7] deals with MCF7. Kind of experiment: Potency index, ratio of foretinib IC50 to test compound IC50 for antiproliferative activity against human MCF7 cells. Format: functional.
Experiment [8] deals with A549. The experiment is described as follows: Potency index, ratio of foretinib IC50 to test compound IC50 for antiproliferative activity against human A549 cells. Type of experiment: functional.
For experiment [9], the system named is MCF7. The experiment is described as follows: Potency index, ratio of cisplatin IC50 to test compound IC50 for antiproliferative activity against human MCF7 cells. Type of experiment: functional.
Experiment [10] is described as follows: Antiproliferative activity against human SMCC7721 cells assessed as reduction in cell viability after 48 hrs by MTT assay. Format: functional, cell-based.
The test system of experiment [11] is A549. Kind of experiment: Potency index, ratio of etoposide IC50 to test compound IC50 for antiproliferative activity against human A549 cells. Type of experiment: functional.
Experiment [12] concerns MCF7. The experiment is described as follows: Potency index, ratio of etoposide IC50 to test compound IC50 for antiproliferative activity against human MCF7 cells. Type of experiment: functional.
For experiment [13], the system named is SW480. The experiment is described as follows: Potency index, ratio of etoposide IC50 to test compound IC50 for antiproliferative activity against human SW480 cells. Format: functional.
Experiment [14] relates to A549. The experiment is described as follows: Potency index, ratio of cisplatin IC50 to test compound IC50 for antiproliferative activity against human A549 cells. Format: functional.
Experiment [15] has as its system SW480. The experiment is described as follows: Antiproliferative activity against human SW480 cells assessed as reduction in cell viability after 48 hrs by MTT assay. Type of experiment: functional, cell-based. The conditions noted are these: SW480, 48 h.
Experiment [16] is described as follows: Potency index, ratio of etoposide IC50 to test compound IC50 for antiproliferative activity against human […] cells. Format: functional.
Experiment [17] relates to SW480. The experiment is described as follows: Potency index, ratio of cisplatin IC50 to test compound IC50 for antiproliferative activity against human SW480 cells. Type of experiment: functional.
The nature of experiment [18]: Potency index, ratio of cisplatin IC50 to test compound IC50 for antiproliferative activity against human […] cells. Type of experiment: functional.
Experiment [19] has as its system A549. Kind of experiment: Antiproliferative activity against human A549 cells assessed as reduction in cell viability after 48 hrs by MTT assay. Format: functional, cell-based. The conditions noted are these: A549, 48 h.
The next experiment has as its system HL-60. Kind of experiment: Antiproliferative activity against human HL60 cells assessed as reduction in cell viability after 48 hrs by MTT assay. Type of experiment: functional, cell-based. The conditions noted are these: HL-60, 48 h.
Experiment [20] has as its system HepG2. The experiment is described as follows: Antiproliferative activity against human HepG2 cells by SRB assay. Format: functional, cell-based. Background: In SRB staining, fixed cells bind dye roughly in proportion to their protein.
Experiment [21] relates to HepG2. The experiment is described as follows: Potency index, ratio of etoposide IC50 to test compound IC50 for antiproliferative activity against human HepG2 cells by SRB assay. Type of experiment: functional. The conditions noted are these: pooled result: one value given for 7 cell lines, strains, targets or settings.
The subject of experiment [22] is MCF7. Kind of experiment: Antiproliferative activity against human MCF7 cells by SRB assay. Format: functional, cell-based.
In the next experiment the test system is SK-OV-3. The experiment is described as follows: Antiproliferative activity against human SKOV3 cells by SRB assay. Format: functional, cell-based.
In experiment [23] the test system is DU-145. The experiment is described as follows: Antiproliferative activity against human DU145 cells by SRB assay. Format: functional, cell-based.
The subject of the next experiment is MCF7-DOX. Kind of experiment: Antiproliferative activity against human MCF7/Dox cells by SRB assay. Type of experiment: functional, cell-based.
In experiment [24] the test system is A549. The experiment is described as follows: Antiproliferative activity against human A549 cells by SRB assay. Format: functional, cell-based.
Experiment [25] deals with HeLa. Kind of experiment: Antiproliferative activity against human HeLa cells by SRB assay. Type of experiment: functional, cell-based.
For experiment [26], the system named is MCF7. Kind of experiment: cells. Format: functional, cell-based. The conditions noted are these: Homo sapiens.
Description: Antiproliferative activity against human MCF7 cells by MTT assay
Another experiment relates to B16. The experiment is described as follows: Antiproliferative activity against mouse B16 cells by MTT assay. Format: functional, cell-based.
Experiment [27] relates to HeLa. The experiment is described as follows: Antiproliferative activity against human HeLa cells by MTT assay. Format: functional, cell-based.
Experiment [28] relates to DU-145. The experiment is described as follows: Antiproliferative activity against human DU145 cells by MTT assay. Type of experiment: functional, cell-based.
Experiment [29] has as its system A549. Kind of experiment: cells. Type of experiment: functional, cell-based. The conditions noted are these: Homo sapiens.
Description: Antiproliferative activity against human A549 cells by MTT assay
The test system of the next experiment is T47D. The experiment is described as follows: Antiproliferative activity against human T47D cells assessed as reduction in cell viability after 48 hrs by MTT assay. Type of experiment: functional, cell-based.
The next experiment deals with SNB-19. The experiment is described as follows: Antiproliferative activity against human SNB19 cells assessed as reduction in cell viability after 48 hrs by MTT assay. The conditions noted are these: SNB-19, 48 h. Type of experiment: functional, cell-based.
Experiment [30] deals with MCF7. Kind of experiment: Antiproliferative activity against human MCF7 cells assessed as reduction in cell viability after 48 hrs by MTT assay. Type of experiment: functional, cell-based. The conditions noted are these: MCF7, 48 h.

Broadly, the IC50 is the concentration needed to halve the response being measured. Consider `Cc1cc(=O)oc2cc(OCc3cn(-c4ccc(S(N)(=O)=O)cc4)nn3)ccc12`, for which the IC50 in the experiment on SGC-7901 was 0.4 to 3.5 µg/mL (≈ 0.97 to 8.49 µM); in the experiment with BGC-823 it was 0.4 to 3.5 µg/mL (≈ 0.97 to 8.49 µM); against Tubulin it was 2400 nM; with MGC-803 [1], 0.4 to 3.5 µg/mL (≈ 0.97 to 8.49 µM). Further, the inhibition in vivo at 60 mg/kg in the experiment on MGC-803 [2] was 64.2%.
As to `O=C(Nc1ccc(Oc2ncnc3ccsc23)cc1)c1nnn(-c2ccc(Cl)cc2)c1C(F)(F)F`, the IC50 in the experiment on A549 [3], in the experiment with HepG2 [4] and with MCF7 [5] was 500 to 1000 nM in each case. Moreover, the “Ratio IC50” value in the experiment on HepG2 [6], in the experiment on MCF7 [7] and in the experiment on A549 [8] was 3.6 - 5.2 in each case.
Consider `CCCC(=O)OC[C@H]1O[C@@H](OC(COCc2cn([C@H]3c4cc5c(cc4[C@@H](c4cc(OC)c(OC)c(OC)c4)[C@H]4C(=O)OC[C@@H]43)OCO5)nn2)COCc2cn([C@H]3c4cc5c(cc4[C@@H](c4cc(OC)c(OC)c(OC)c4)[C@H]4C(=O)OC[C@@H]43)OCO5)nn2)[C@H](OC(=O)CCC)[C@@H](OC(=O)CCC)[C@@H]1OC(=O)CCC` (some centres undefined), for which the “Ratio IC50” value (with MCF7 [9]; in the experiment on A549 [11]; in the experiment on MCF7 [12]; in the experiment on SW480 [13]; in the experiment with A549 [14]; in experiment [16]) was 2.8 - 21.3 in each case. For the same compound, the “Ratio IC50” value (in the experiment on SW480 [17]; in experiment [18]) was 2.8 - 21.3 throughout. In addition, the IC50 (in experiment [10]; in the experiment with SW480 [15]; in the experiment on A549 [19]; in the experiment with HL-60) was 430 to 3500 nM throughout.
In the case of `CO/N=C1\C(=O)N(CCOCCn2cc(CN3C(=O)/C(=N\OC)c4ccccc43)nn2)c2ccccc21`, the IC50 in the experiment with HepG2 [20], in the experiment with MCF7 [22], in the experiment on SK-OV-3, in the experiment with DU-145 [23], in the experiment with MCF7-DOX and in the experiment with A549 [24] was 180 to 9920 nM throughout. This compound also returned an IC50 in the experiment with HeLa [25] of 180 to 9920 nM. Besides, the “Ratio IC50” value in the experiment with HepG2 [21] is on record as 1.55.
On to `CCc1ccc(-c2cn(CCNC3=C(C)C(=O)c4ccccc4C3=O)nn2)cc1`, for which the IC50 with MCF7 [26], with B16, in the experiment on HeLa [27], in the experiment with DU-145 [28] and in the experiment with A549 [29] was 8020 to 26100 nM each time.
As for `C=C(C)[C@@H]1CC[C@]2(OC(=O)c3cn(Cc4ccc(F)cc4)nn3)CC[C@]3(C)[C@H](CC[C@@H]4[C@@]5(C)CC[C@H](OC(=O)c6cn(Cc7ccc(F)cc7)nn6)C(C)(C)[C@@H]5CC[C@]43C)[C@@H]12`, the IC50 in the experiment on T47D, with SNB-19 and in the experiment with MCF7 [30] was 50 to 90 nM throughout.
